Experiments:
KAT6A = biological target: T1, KAT6A (Homo sapiens, UniProt Q92794); test: KATs acetyltransferase enzyme activity assay (TR-FRET), KAT6A; format: biochemical; conditions: Biotin-H3 (1-21) and AcCOA, 90 minutes at room temperature
T1 construct: purchased Active Motif 81223
Method: (§1) I. KATs acetyltransferase enzyme activity assay
• 1. The inhibitory effect of compounds on the acetyltransferase activity of KATs was evaluated using the Time-Resolved Fluorescence Resonance Energy Transfer (TR-FRET) assay. The assay was conducted in 384-well plates using Tris-HCl buffer. • 2. Compounds were diluted in DMSO and transferred to 384-well plates. […] Subsequently, 2.5 µL of a mixture containing KAT6A/KAT6B: Biotin-H3 (1-21, Genscript, C6829GL060) or KAT5/7/8: Bio-H4 (1-25, Genscript, C736BGL100) AcCOA (Sigma, A2056) was added, and the reaction proceeded at room temperature for 90 minutes. • 4. After the reaction, a detection mixture containing Europium-anti-acetyl-Histone H4 Lysine (H4Kac pan) Antibody (Perkin Elmer, TRF0412) and LANCE Ultra ULight™-Streptavidin in LANCE™ Detection buffer (10x) (Perkin Elmer, CR97-100) was added, followed by incubation at room temperature for 60 minutes. • 5. […] IC50 values were calculated by nonlinear regression using a four-parameter logistic equation in GraphPad Prism 8 software.

KAT6B = biological target: T2, KAT6B (Homo sapiens, UniProt Q8WYB5); test: KATs acetyltransferase enzyme activity assay (TR-FRET), KAT6B; format: biochemical; conditions: Biotin-H3 (1-21) and AcCOA, 90 minutes at room temperature
T2 construct: purchased Active Motif 81224
Method: as §1
• 1. The inhibitory effect of compounds on the acetyltransferase activity of KATs was evaluated using the Time-Resolved Fluorescence Resonance Energy Transfer (TR-FRET) assay. The assay was conducted in 384-well plates using Tris-HCl buffer. • 2. Compounds were diluted in DMSO and transferred to 384-well plates. Enzyme solutions (KAT6: active motif (kit), 81223; KAT6B: active motif, 81224; KAT5: SignalChem, K314-380G; KAT7: ICE, S2210F-H21HF; KAT8: Active motif, 81225) were added and the mixture was incubated at room temperature for 15 minutes. • 3. Subsequently, 2.5 µL of a mixture containing KAT6A/KAT6B: Biotin-H3 (1-21, Genscript, C6829GL060) or KAT5/7/8: Bio-H4 (1-25, Genscript, C736BGL100) AcCOA (Sigma, A2056) was added, and the reaction proceeded at room temperature for 90 minutes. • 4. After the reaction, a detection mixture containing Europium-anti-acetyl-Histone H4 Lysine (H4Kac pan) Antibody (Perkin Elmer, TRF0412) and LANCE Ultra ULight™-Streptavidin in LANCE™ Detection buffer (10x) (Perkin Elmer, CR97-100) was added, followed by incubation at room temperature for 60 minutes. • 5. HTRF signals were measured using a BMG PHERAstar FSX (Ratio: 665nm/620nm). IC50 values were calculated by nonlinear regression using a four-parameter logistic equation in GraphPad Prism 8 software.

ZR-75-1 cells = test: ZR-75-1 cell proliferation assay (CellTiter-Glo); format: cell-based; conditions: Homo sapiens, ZR-75-1, 240 h, total culture period of 10 days, read-out: ZR-75-1 Proliferation Inhibition IC50
Method: II. ZR-75-1 cell proliferation assay
• 1. ZR-75-1 cells were seeded in 96-well plates and cultured overnight in an incubator at 37°C & 5% CO2. • 2. Compounds were diluted using culture medium and added to the 96-well plates. The plates were placed back into the incubator for continued culture. Every 5 days, the cells were trypsinized, counted, and re-seeded. After the cells had fully adhered, compounds were added again for incubation, for a total culture period of 10 days. • 3. After the culture period, 60 µL of CellTiter-Glo reagent (Promega, G7573) was added to each well. The plates were protected from light and shaken for 2 minutes to lyse the cells, followed by further incubation at room temperature, protected from light, for 30 minutes. • 4. Luminescence signals were read using a BMG PHERAstar FSX. IC50 values were calculated by nonlinear regression using a four-parameter logistic equation in GraphPad Prism 8 software.

[1] = test system: ZR-75-1 H3K23 Acetylation; test: Histone H3 acetylation assay (H3K23 acetylation in ZR-75-1 cells); format: cell-based; conditions: Homo sapiens, 72 hours incubation, Odyssey CLx fluorescence, read-out: ZR-75-1 H3K23 Acetylation Inhibition IC50
Method: III. Histone H3 acetylation assay
• 1. ZR-75-1 cells were seeded at 5000 cells/40 µL per well in 384-well plates and cultured overnight in an incubator at 37°C & 5% CO2. • 2. 40 nL of serially diluted compounds were added to the 384-well plates, followed by further incubation for 72 hours. • 3. The supernatant was discarded, and 8 w/v% paraformaldehyde (final concentration was 4 w/v%) was added directly to the wells to fix the cells at room temperature. • 4. After washing twice with PBS, a permeabilization agent (40 µL of methanol) was added and incubated for 10 minutes to permeabilize the cell membranes. • 5. After washing twice with PBS, a blocking buffer was added and incubated at room temperature for 1 hour for blocking. • 6. The blocking buffer was discarded, and 20 µL of primary antibodies (recombinant Anti-Histone H3 (acetyl K23) antibody and Anti-Histone H4 antibody) diluted in blocking buffer (1:1000 by volume dilution) were added, followed by incubation at 4°C overnight. • 7. After washing three times with PBST (0.05 vol% Tween-20 in PBS), 20 µL of fluorescent secondary antibodies (IRDye 680RD Goat anti-MOUSE, Licor, 926-68070; IRDye 800CW Goat anti-Rabbit, Licor, 926-32211) diluted in blocking buffer (1:2000 by volume dilution) were added, followed by incubation at room temperature, protected from light, for 1 hour. Then, the plates were washed three times with PBST. • 8. Scanning was performed using an Odyssey CLx, and the fluorescence signal value for each well was quantified. IC50 values were calculated by nonlinear regression using a four-parameter logistic equation in GraphPad Prism 8 software.

T2 sequence (Q8WYB5 whole entry): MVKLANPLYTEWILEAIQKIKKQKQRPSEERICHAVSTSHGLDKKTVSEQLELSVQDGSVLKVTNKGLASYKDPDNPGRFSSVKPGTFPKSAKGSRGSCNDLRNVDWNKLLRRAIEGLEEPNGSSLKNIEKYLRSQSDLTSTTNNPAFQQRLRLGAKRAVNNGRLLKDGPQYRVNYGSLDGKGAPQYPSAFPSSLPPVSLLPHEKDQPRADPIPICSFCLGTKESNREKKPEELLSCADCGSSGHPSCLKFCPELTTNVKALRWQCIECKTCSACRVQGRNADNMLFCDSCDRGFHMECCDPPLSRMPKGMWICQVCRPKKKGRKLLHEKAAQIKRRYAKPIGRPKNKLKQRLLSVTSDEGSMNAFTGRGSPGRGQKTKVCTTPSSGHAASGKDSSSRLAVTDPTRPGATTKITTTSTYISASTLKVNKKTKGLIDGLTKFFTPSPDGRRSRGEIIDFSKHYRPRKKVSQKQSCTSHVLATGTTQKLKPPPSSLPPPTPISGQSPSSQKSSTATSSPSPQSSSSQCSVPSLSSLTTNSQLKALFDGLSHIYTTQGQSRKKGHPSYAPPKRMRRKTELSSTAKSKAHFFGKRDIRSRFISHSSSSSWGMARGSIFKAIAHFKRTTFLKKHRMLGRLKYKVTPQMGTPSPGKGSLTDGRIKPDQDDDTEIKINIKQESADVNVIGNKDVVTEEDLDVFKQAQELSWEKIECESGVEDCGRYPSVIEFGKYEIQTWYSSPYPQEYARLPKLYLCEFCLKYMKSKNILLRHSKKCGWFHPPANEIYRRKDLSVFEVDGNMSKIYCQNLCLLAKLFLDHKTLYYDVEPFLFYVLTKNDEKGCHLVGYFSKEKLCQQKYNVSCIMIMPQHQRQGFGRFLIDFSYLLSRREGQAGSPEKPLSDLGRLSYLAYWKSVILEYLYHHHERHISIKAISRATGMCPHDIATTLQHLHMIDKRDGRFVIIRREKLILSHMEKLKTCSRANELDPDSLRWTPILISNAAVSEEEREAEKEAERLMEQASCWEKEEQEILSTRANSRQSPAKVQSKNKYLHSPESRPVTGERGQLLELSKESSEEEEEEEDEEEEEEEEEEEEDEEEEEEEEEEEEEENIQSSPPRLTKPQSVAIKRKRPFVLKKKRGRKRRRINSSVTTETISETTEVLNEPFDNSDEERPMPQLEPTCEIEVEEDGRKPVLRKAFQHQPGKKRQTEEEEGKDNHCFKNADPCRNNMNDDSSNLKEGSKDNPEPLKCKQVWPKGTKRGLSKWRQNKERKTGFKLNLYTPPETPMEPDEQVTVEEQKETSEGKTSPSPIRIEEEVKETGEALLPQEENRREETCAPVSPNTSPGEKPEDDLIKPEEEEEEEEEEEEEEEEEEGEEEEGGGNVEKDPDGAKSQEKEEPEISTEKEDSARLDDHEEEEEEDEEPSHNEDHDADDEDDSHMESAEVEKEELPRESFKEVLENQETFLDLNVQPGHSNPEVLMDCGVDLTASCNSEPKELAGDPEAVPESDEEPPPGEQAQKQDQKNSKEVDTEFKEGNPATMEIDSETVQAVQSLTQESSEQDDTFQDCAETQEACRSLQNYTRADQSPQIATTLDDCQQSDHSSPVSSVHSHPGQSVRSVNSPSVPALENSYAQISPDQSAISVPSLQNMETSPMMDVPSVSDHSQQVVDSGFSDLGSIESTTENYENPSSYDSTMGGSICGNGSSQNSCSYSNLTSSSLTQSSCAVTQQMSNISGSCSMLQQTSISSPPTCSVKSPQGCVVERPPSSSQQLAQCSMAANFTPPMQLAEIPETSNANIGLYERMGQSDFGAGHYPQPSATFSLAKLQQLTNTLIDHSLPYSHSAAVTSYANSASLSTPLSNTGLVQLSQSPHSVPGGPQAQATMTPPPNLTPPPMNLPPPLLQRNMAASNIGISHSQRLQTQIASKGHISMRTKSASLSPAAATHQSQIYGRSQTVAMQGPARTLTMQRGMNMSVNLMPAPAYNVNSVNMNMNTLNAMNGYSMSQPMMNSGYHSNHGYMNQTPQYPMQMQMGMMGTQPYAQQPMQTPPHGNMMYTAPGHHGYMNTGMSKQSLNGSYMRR
T1 sequence (Q92794 488-778 limits assumed): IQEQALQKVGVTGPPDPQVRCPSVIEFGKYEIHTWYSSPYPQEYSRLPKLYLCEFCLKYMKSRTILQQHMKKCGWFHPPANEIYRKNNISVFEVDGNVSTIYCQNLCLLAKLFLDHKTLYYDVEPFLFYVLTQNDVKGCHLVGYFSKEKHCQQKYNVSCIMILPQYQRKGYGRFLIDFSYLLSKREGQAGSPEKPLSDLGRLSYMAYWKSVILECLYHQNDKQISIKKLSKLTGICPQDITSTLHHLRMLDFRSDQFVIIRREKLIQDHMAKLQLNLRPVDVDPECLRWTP

Row | Compound | IC50 (KAT6A) [nM] | IC50 (KAT6B) [nM] | IC50 [1] [nM] | IC50 (ZR-75-1 cells) [nM]
1 | COc1ccc2c(c1S(=O)(=O)Nc1noc3cc(Cn4cccn4)c(F)c(OC)c13)OCC1CC21 (single isomer, unassigned) [Compound 30-P1] | 1.4 | 1.4 | 0.3 | 0.08
2 | COc1cc2c(NS(=O)(=O)c3c(OC)ccc4c3OCC3CC43)noc2cc1Cn1cccn1 (single isomer, unassigned) [Compound 33] | 1.1 | 1.2 | 0.2 | 0.03
3 | COc1ccc2c(c1S(=O)(=O)Nc1noc3cc(Cn4cccn4)c(OC)c(C)c13)OCC1CC21 (centres unmarked) [Compound 40, N-(6-((1H-Pyrazol-1-yl)methyl)-5-methoxy-4-methylbenzo[d]isoxazol-3-yl)-5-methoxy-1,1a,2,7b-tetrahydrocyclopropa[c]chromene-4-sulfonamide] | 1.7 | 12.9 | 12.4 | 1.6
4 | COc1ccc2c(c1S(=O)(=O)Nc1noc3cc(Cn4cccn4)c4c(c13)OCC4)OCCCO2 [Compound 35, N-(4-((1H-Pyrazol-1-yl)methyl)-2,3-dihydrobenzofuro[7,6-d]isoxazol-8-yl)-7-methoxy-3,4-dihydro-2H-benzo[b][1,4]dioxepine-6-sulfonamide] | 4.3 | 45.9 | 15 | 3.3
5 | COc1ccc2c(c1S(=O)(=O)Nc1noc3cc(Cn4cccn4)cc(OC)c13)OC[C@H]1C[C@@H]21 [Compound 5-P1, (1aS,7bR)-N-(6-((1H-Pyrazol-1-yl)methyl)-4-methoxybenzo[d]isoxazol-3-yl)-5-methoxy-1,1a,2,7b-tetrahydrocyclopropa[c]chromene-4-sulfonamide] | 2.5 | 11.1 | 1.9 | 0.3

Continued, in another order:

Row | IC50 (KAT6A) [nM] | IC50 (KAT6B) [nM] | IC50 [1] [nM] | Compound | IC50 (ZR-75-1 cells) [nM]
6 | 12.9 | 81.7 | 9 | COc1cc(Cn2cccn2)cc2onc(NS(=O)(=O)c3cccc4c3OCCCO4)c12 [Compound 1, N-(6-((1H-Pyrazol-1-yl)methyl)-4-methoxybenzo[d]isoxazol-3-yl)-3,4-dihydro-2H-benz o[b] [1,4]dioxepine-6-sulfonamide] | 6.7
7 | 1.7 | 8 | 3.7 | COc1ccc2c(c1S(=O)(=O)Nc1noc3cc(Cn4cccn4)c4c(c13)OCC4)OCC21CC1 [Compound 36, N-(4-((1H-Pyrazol-1-yl)methyl)-2,3-dihydrobenzofuro[7,6-d]isoxazol-8-yl)-6-methoxy-2H-spiro[benzofuran-3,1'-cyclopropane]-7-sulfonamide] | 0.4
8 | 1.3 | 2.7 | 1.1 | COc1ccc2c(c1S(=O)(=O)Nc1noc3cc(Cn4cccn4)c(F)c(OC)c13)OCC21CC1 [Compound 31, N-(6-((1H-Pyrazol-1-yl)methyl)-5-fluoro-4-methoxybenzo[d]isoxazol-3-yl)-6-methoxy-2H-spiro[benzofuran-3,1'-cyclopropane]-7-sulfonamide] | 0.3
9 | 2.7 | 40.8 | 10.3 | COc1cc2c(cc1S(=O)(=O)Nc1noc3cc(Cn4cccn4)cc(OC)c13)OCCOC2 [Compound 8] | 4.2
10 | 2.2 | 19.9 | 2.3 | COc1ccc2c(c1S(=O)(=O)Nc1noc3cc(Cn4cccn4)cc(OC)c13)OCCOC2 [Compound 10, N-(6-((1H-Pyrazol-1-yl)methyl)-4-methoxybenzo[d]isoxazol-3-yl)-8-methoxy-2,3-dihyd ro-5H-benzo [e] [1,4] dioxepine-9-sulfonamide] | 1.4
11 | 1.5 | 3.7 | 0.5 | COc1ccc2c(c1S(=O)(=O)Nc1noc3cc(Cn4cccn4)cc(OC)c13)OCC1CC21 (centres unmarked) [Compound 5, N-(6-((1H-Pyrazol-1-yl)methyl)-4-methoxybenzo[d]isoxazol-3-yl)-5-methoxy-1,1a,2,7b-tetrahydrocyclopropa[c]chromene-4-sulfonamide] | 0.2

Source: patent publication EP4741389A1, “KAT6 INHIBITOR” (Shanghai Qilu Pharmaceutical Research and Development …, priority 2023, dated 2025)
